Active and inactive are the calls of the source. The rule behind the calls is not given here.
Legend:
MDA-MB-231 [1] = assay: Induction of pyroptosis mediated immunogenic cell death in human MDA-MB-231 cells assessed as increase in CRT exposure on cell membrane at 0.5 uM incubated for 12 hrs under light irradiation of 20 mW.cm/2 at 400 to 700nm for 10 mins; assay type: functional, cell-based
[2] = Phototoxicity against human MDA-MB-231 cells preincubated for 24 hrs followed by light irradiation of 20 mW.cm/2 at 400 to 700nm for 10 mins under hypoxia condition by CCK-8 method; assay type: functional, cell-based; conditions: MDA-MB-231, light or radiation study
MDA-MB-231 [3] = assay: Induction of pyroptosis in human MDA-MB-231 cells assessed as effect on GSDMD-N expression level at 0.1 to 0.5 uM preincubated with compound for 12 hrs followed by light irradiation of 20 mW.cm/2 at 400 to 700nm for 10 mins by Western blot analysis; assay type: functional, cell-based; conditions: dose 0.1-0.5 µM
[4] = Aqueous solubility of the compound by UV-vis absorption analysis; assay type: physicochemical; conditions: water
4T1 [5] = assay: Antitumor immunity against mouse 4T1 cells implanted in BALB/c mouse model assessed as increase in proportion of tumor infiltrating CD4+ T cells at 25 mg/kg, iv measured after 14 days under light irradiation of 300 mW.cm/2 at 400 to 700nm measured after 5 mins by immunofluorescence analysis; assay type: functional, organism-based; conditions: time 14.0 day
[6] = Toxicity in BALB/c mouse assessed as effect on lung at 25 mg/kg, iv measured after 14 days under light irradiation of 300 mW.cm/2 at 400 to 700nm measured after 5 mins; assay type: organism-based; conditions: in vivo, 336 h, 0.7 µM, time 14 day
4T1 [7] = assay: Antitumor immunity against mouse 4T1 cells implanted in BALB/c mouse model assessed as increase in IFN-gamma secretion in tumors at 25 mg/kg, iv measured after 14 days under light irradiation of 300 mW.cm/2 at 400 to 700nm measured after 5 mins by ELISA method; assay type: functional, organism-based; conditions: time 14.0 day
4T1 [8] = assay: Induction of intracellular ROS generation in mouse 4T1 cells assessed as increase in fluorescence intensity at 0.1 uM preincubated for 2 hrs followed by compound washout further incubated with DCFH-DA probe for 30 mins under light irradiation of 20 mW.cm/2 at 400 to 700nm measured after 10 mins in presence of tiron by flow cytometry analysis; assay type: functional, cell-based
[9] = Toxicity in BALB/c mouse assessed as effect on liver at 25 mg/kg, iv measured after 14 days under light irradiation of 300 mW.cm/2 at 400 to 700nm measured after 5 mins; assay type: organism-based; conditions: in vivo, 336 h, 0.7 µM, time 14 day
MDA-MB-231 [10] = assay: Induction of pyroptosis in human MDA-MB-231 cells assessed as upregulation of GSDME-N expression level at 0.1 to 0.5 uM preincubated with compound for 12 hrs followed by light irradiation of 20 mW.cm/2 at 400 to 700nm for 10 mins by Western blot analysis; assay type: functional, cell-based; conditions: dose 0.1-0.5 µM
MDA-MB-231 [11] = assay: Induction of pyroptosis in human MDA-MB-231 cells assessed as upregulation of caspase-3 expression level at 0.1 to 0.5 uM preincubated with compound for 12 hrs followed by light irradiation of 20 mW.cm/2 at 400 to 700nm for 10 mins by Western blot analysis; assay type: functional, cell-based; conditions: dose 0.1-0.5 µM
[12] = Toxicity in BALB/c mouse assessed as effect on kidney at 25 mg/kg, iv measured after 14 days under light irradiation of 300 mW.cm/2 at 400 to 700nm measured after 5 mins; assay type: organism-based; conditions: in vivo, 336 h, 0.7 µM, time 14 day
MDA-MB-231 [13] = assay: Cytotoxicity against human MDA-MB-231 cells at 0.01 to 10 uM incubated for 2 hrs under dark condition by CCK-8 method; assay type: functional, cell-based; conditions: dose 0.01-10 µM
[14] = Toxicity in BALB/c mouse assessed as effect on WBC at 25 mg/kg, iv measured after 14 days; assay type: organism-based; conditions: in vivo, 336 h, time 14 day
4T1 [15] = assay: Antitumor immunity against mouse 4T1 cells implanted in BALB/c mouse model assessed as increase in IL1beta secretion in tumors at 25 mg/kg, iv measured after 14 days under light irradiation of 300 mW.cm/2 at 400 to 700nm measured after 5 mins by ELISA method; assay type: functional, organism-based; conditions: time 14.0 day
MDA-MB-231 [16] = assay: Photocytotoxicity in human MDA-MB-231 cells assessed as reduction in 3D multicellular spheroids diameter at 0.5 to 1 uM incubated for 24 hrs under light irradiation of 50 mW.cm/2 at 400 to 700nm measured after 10 mins in normoxia condition; assay type: functional, cell-based; conditions: dose 0.5-1 µM
MDA-MB-231 [17] = assay: Induction of cell death in human MDA-MB-231 cells assessed as increase in red fluorescence at 0.5 uM incubated for 24 hrs followed by light irradiation of 20 mW.cm/2 at 400 to 700nm for 10 mins by Calcein-AM/PI staining based analysis; assay type: functional
MDA-MB-231 [18] = assay: Induction of pyroptosis in human MDA-MB-231 cells assessed as formation of bubble-like protrusion on plasma membrane at 0.25 uM preincubated with compound for 12 hrs followed by light irradiation of 20 mW.cm/2 at 400 to 700nm for 10 mins by microscopy analysis; assay type: functional, cell-based
[19] = Drug accumulation in BALB/c mouse tumor implanted with mouse 4T1 cells assessed as increase in fluorescence intensity at 25 mg/kg, iv measured after 3 hrs by imaging based analysis; assay type: ADME, organism-based, Neoplasm; conditions: in vivo
4T1 [20] = assay: Antitumor immunity against mouse 4T1 cells implanted in BALB/c mouse model assessed as fold increase in CD4+ T cells in spleen at 25 mg/kg, iv measured after 14 days under light irradiation of 300 mW.cm/2 at 400 to 700nm measured after 5 mins […]; assay type: functional; conditions: time 14 day
[21] = Toxicity in BALB/c mouse assessed as effect on kidney at 25 mg/kg, iv measured after 14 days by H and E staining based analysis; assay type: organism-based; conditions: in vivo, 336 h, time 14 day
[22] = Toxicity in BALB/c mouse assessed as effect on platelets at 25 mg/kg, iv measured after 14 days under light irradiation of 300 mW.cm/2 at 400 to 700nm measured after 5 mins; assay type: organism-based; conditions: in vivo, 336 h, 0.7 µM, time 14 day
[23] = Toxicity in BALB/c mouse assessed as effect on heart at 25 mg/kg, iv measured after 14 days by H and E staining based analysis; assay type: organism-based; conditions: in vivo, 336 h, time 14 day
[24] = Drug accumulation in BALB/c mouse tumor implanted with mouse 4T1 cells assessed as increase in fluorescence intensity at 25 mg/kg, iv measured after 12 hrs by imaging based analysis; assay type: ADME, organism-based, Neoplasm; conditions: in vivo
[25] = Induction of ROS generation under LED light irradiation assessed as increase in superoxide anion radical level by measuring increase in DHR123 fluorescence at 5 uM measured for 7 mins by fluorescence based analysis; assay type: functional
4T1 [26] = assay: Antitumor immunity against mouse 4T1 cells implanted in BALB/c mouse model assessed as increase in IL-6 secretion in tumors at 25 mg/kg, iv measured after 14 days under light irradiation of 300 mW.cm/2 at 400 to 700nm measured after 5 mins by ELISA method; assay type: functional, organism-based; conditions: time 14.0 day
4T1 [27] = assay: Induction of cell death in mouse 4T1 cells assessed as increase in red fluorescence at 0.5 uM incubated for 24 hrs followed by light irradiation of 20 mW.cm/2 at 400 to 700nm for 10 mins by Calcein-AM/PI staining based analysis; assay type: functional

Question: For O=c1cc2sc3cc(N4CCNCC4)ccc3nc-2c2ccccc12, which Activity (MDA-MB-231 [1]) is on record?
Answer: The Activity was “Active”.

Question: What about the IC50 [2] of the same compound?
Answer: Its IC50 is 303 nM.

Question: What about the Activity (MDA-MB-231 [3]) of the same compound?
Answer: The Activity was “inactive”.

Question: What about the solubility [4] of the same compound?
Answer: Its solubility is > 10 mM.

Question: And the Activity (4T1 [5])?
Answer: The Activity was “Active”.

Question: What about the Activity [6] of the same compound?
Answer: Its Activity is “Non-toxic”.

Question: And the Activity (4T1 [7])?
Answer: The Activity was “Active”.

Question: What about the Activity (4T1 [8]) of the same compound?
Answer: Its Activity is “inactive”.

Question: What about the Activity [9] of the same compound?
Answer: Its Activity is “Non-toxic”.

Question: What about the Activity (MDA-MB-231 [10]) of the same compound?
Answer: The Activity was “Active”.

Question: What about the Activity (MDA-MB-231 [11]) of the same compound?
Answer: The Activity was “Active”.

Question: What about the Activity [12] of the same compound?
Answer: The Activity was “Non-toxic”.

Question: And the Activity (MDA-MB-231 [13])?
Answer: The Activity was “Active; Compound Showed Low Toxicity”.

Question: And the Activity [14]?
Answer: The Activity was “Non-toxic”.

Question: And the Activity (4T1 [15])?
Answer: The Activity was “Active”.

Question: What about the Activity (MDA-MB-231 [16]) of the same compound?
Answer: The Activity was “Active”.

Question: What about the Activity (MDA-MB-231 [17]) of the same compound?
Answer: Its Activity is “Active”.

Question: What about the Activity (MDA-MB-231 [18]) of the same compound?
Answer: The Activity was “Active”.

Question: And the Drug uptake [19]?
Answer: Its Drug uptake is “Active”.

Question: And the “fold change (FC)” value (4T1 [20])?
Answer: Its value is 6.8.

Question: And the Activity [21]?
Answer: Its Activity is “Non-toxic”.

Question: And the Activity [22]?
Answer: Its Activity is “Non-toxic”.

Question: And the Activity [23]?
Answer: The Activity was “Non-toxic”.

Question: What about the Drug uptake [24] of the same compound?
Answer: Its Drug uptake is “Active”.

Question: What about the Activity [25] of the same compound?
Answer: Its Activity is “Active”.

Question: And the Activity (4T1 [26])?
Answer: The Activity was “Active”.

Question: What about the Activity (4T1 [27]) of the same compound?
Answer: Its Activity is “Active”.

Source: ChEMBL document CHEMBL6096728, “Simultaneous Induction of Immunogenic Pyroptosis and PD-L1 Downregulation by One Single Photosensitizer for Synergistic Cancer Photoimmunotherapy” (J Med Chem, 2025)
